# Assay results published in US6046331A, “Imidazolones and their use in treating benign prostatic hyperplasia and other disorders” (Synaptic Pharmaceutical Corporation, priority 1998, dated 2000).
# Target: T1, human α1d receptor (Homo sapiens, UniProt P25100)
# T1 construct: The entire coding region of α1d (1719 bp); expressed in transfected cells; host or cells: LM(tk-) mouse fibroblast line L-α1A (old nomenclature), ATCC CRL 11138
# T1 sequence (P25100 1-572): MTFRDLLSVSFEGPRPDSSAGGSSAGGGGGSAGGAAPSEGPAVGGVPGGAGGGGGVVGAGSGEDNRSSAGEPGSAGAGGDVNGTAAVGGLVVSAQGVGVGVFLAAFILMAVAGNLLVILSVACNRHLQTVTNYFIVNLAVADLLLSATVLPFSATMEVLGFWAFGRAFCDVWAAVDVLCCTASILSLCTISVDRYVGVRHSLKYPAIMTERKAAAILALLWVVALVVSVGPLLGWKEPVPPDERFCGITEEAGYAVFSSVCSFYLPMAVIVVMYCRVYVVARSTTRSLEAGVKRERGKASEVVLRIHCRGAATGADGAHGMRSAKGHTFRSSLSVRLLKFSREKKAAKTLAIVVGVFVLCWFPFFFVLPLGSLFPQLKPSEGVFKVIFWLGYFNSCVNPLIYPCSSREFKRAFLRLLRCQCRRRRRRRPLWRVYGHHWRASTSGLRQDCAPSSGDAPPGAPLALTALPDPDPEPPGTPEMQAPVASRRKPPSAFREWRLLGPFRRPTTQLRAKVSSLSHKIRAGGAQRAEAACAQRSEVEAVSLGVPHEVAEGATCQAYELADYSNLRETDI
# Assay: Radioligand binding ([^3 H]prazosin) at cloned human α1d receptor
# Conditions: LM(tk-) cell membranes, read-out: hα1d Ki
# Protocol: Binding affinities were measured for selected compounds of the invention at six cloned human α1 and α2 receptor subtypes, as well as at the L-type calcium channel. The protocols for these experiments are given below.
# The activity of compounds at the different human receptors was determined in vitro using cultured cell lines that selectively express the receptor of interest. These cell lines were prepared by transfecting the cloned cDNA or cloned genomic DNA or constructs containing both genomic DNA and cDNA encoding the human α-adrenergic receptors as follows:
# α1d Human Adrenergic Receptor: The entire coding region of α1d (1719 bp), including 150 base pairs of 5' untranslated sequence (5' UT) and 300 bp of 3' untranslated sequence (3' UT), was cloned into the BamHI and ClaI sites of the polylinker-modified eukaryotic expression vector pCEXV-3, called EXJ.HR. The construct involved the ligation of partial overlapping human lymphocyte genomic and hippocampal cDNA clones: 5' sequence were contained on a 1.2 kb SmaI-XhoI genomic fragment (the vector-derived BamHI site was used for subcloning instead of the internal insert-derived SmaI site) and 3' sequences were contained on an 1.3 kb XhoI-ClaI cDNA fragment (the ClaI site was from the vector polylinker). Stable cell lines were obtained by cotransfection with the plasmid α1A/EXJ (expression vector containing the α1a receptor gene (old nomenclature)) and the plasmid pGCcos3neo (plasmid containing the aminoglycoside transferase gene) into LM(tk-) cells using calcium phosphate technique. The cells were grown, in a controlled environment (37° C., 5% CO2), as monolayers in Dulbecco's modified Eagle's Medium (GIBCO, Grand Island, N.Y.) containing 25 mM glucose and supplemented with 10% bovine calf serum, 100 units/ml penicillin g, and 100 μg/ml streptomycin sulfate. Stable clones were then selected for resistance to the antibiotic G-418 (1 mg/ml), and membranes were harvested and assayed for their ability to bind [^3 H]prazosin as described below (see "Radioligand Binding assays").
# The cell line expressing the human α1d receptor used herein was designated L-α1A (old nomenclature) and was deposited with the American Type Culture Collection, 12301 Parklawn Drive, Rockville, Md. 20852, U.S.A. under the provisions of the Budapest Treaty for the International Recognition of the Deposit of Microorganisms for the Purposes of Patent Procedure. The cell line expressing the human α1d receptor, was accorded ATCC Accession No. CRL 11138, and was deposited on Sep. 25, 1992.
# Radioligand Binding Assays for α1 receptors:
# Transfected cells from culture flasks were scraped into 5 ml of 5 mM Tris-HCl, 5 mM EDTA, pH 7.5, and lysed by sonication. The cell lysates were centrifuged at 1000 rpm for 5 min at 4° C., and the supernatant was centrifuged at 30,000× g for 20 min at 4° C. The pellet was suspended in 50 mM Tris-HCl, 1 mM MgCl2, and 0.1% ascorbic acid at pH 7.5. Binding of the α1 antagonist [^3 H]prazosin (0.5 nM, specific activity 76.2 Ci/mmol) to membrane preparations of LM(tk-) cells was done in a final volume of 0.25 ml and incubated at 37° C. for 20 min. Nonspecific binding was determined in the presence of […] phentolamine. The reaction was stopped by filtration through GF/B filters using a cell harvester. Inhibition experiments, routinely consisting of 7 concentrations of the tested compounds, were analyzed using a non-linear regression curve-fitting computer program to obtain Ki values.
# The compounds described above were assayed using cloned human alpha adrenergic receptors. […] The binding affinities of several compounds are illustrated in the following table.
# Binding affinities of selected compounds of the present invention at cloned human α1d, α1b and α1a receptors. (h=human)
row,SMILES,Ki [nM]
1,"COC(=O)c1[nH]c(=O)n(CCCCCN2CCC(C(=O)OC)(c3ccccc3)CC2)c1-c1ccc(F)c(F)c1 [Compound 1, 1-(5-(4-Methoxycarbonyl-4-phenylpiperidin-1-yl)pent-1-yl)-4-methoxycarbonyl-5-(3,4-difluorophenyl)-2,3-dihydro-2(1H)-imidazolone]",329
2,"COC(=O)c1[nH]c(=O)n(CCCCCN2CCC(C#N)(c3ccccc3)CC2)c1-c1ccc(F)c(F)c1 [Compound 2, 5-(3,4-Difluorophenyl)-2,3-dihydro-4-methoxycarbonyl-1-(5-(4-cyano-4-phenylpiperidin-1-yl)pent-1-yl)-2(1H)-imidazolone]",367
3,"COC(=O)c1[nH]c(=O)n(CCCCCN2CCC(O)(c3ccccc3)CC2)c1-c1ccc(F)c(F)c1 [Compound 3, 5-(3,4-Difluorophenyl)-2,3-dihydro-4-methoxycarbonyl-1-(5-(4-hydroxy-4-phenylpiperidin-1-yl)pent-1-yl)-2(1H)-imidazolone]",2660
4,"COC(=O)c1[nH]c(=O)n(CCCCCN2CCN(c3ccccc3C(N)=O)CC2)c1-c1cc(F)c(F)c(F)c1 [Compound 4, 1-(5-(4-(2-Aminocarbonylphenyl)piperazin-1-yl)pent-1-yl)-5-(3,4,5-trifluorophenyl)-2,3-dihydro-4-methoxycarbonyl-2(1H)-imidazolone]",279
5,"COC(=O)c1ccccc1N1CCN(CCCCCn2c(-c3cc(F)c(F)c(F)c3)c(C(=O)OC)[nH]c2=O)CC1 [Compound 5, 5-(3,4,5-Trifluorophenyl)-2,3-dihydro-4-methoxycarbonyl-1-(5-(4-(2-methoxycarbonylphenyl)piperazin-1-yl)pent-1-yl)-2(1H)-imidazolone]",15.7
6,"CCOC(=O)c1[nH]c(=O)n(CCCCCN2CCN(c3ccccc3C(N)=O)CC2)c1-c1ccc(F)c(F)c1 [Compound 6, 1-(5-(4-(2-Aminocarbonylphenyl)piperazin-1-yl)pent-1-yl)-4-ethoxycarbonyl-5-(3,4-difluorophenyl)-2,3-dihydro-2(1H)-imidazolone]",141
7,"COC(=O)c1[nH]c(=O)n(CCCCCN2CCN(c3ccccc3C(N)=O)CC2)c1-c1cc(F)c(F)cc1F [Compound 7, 1-(5-(4-(2-Aminocarbonylphenyl)piperazin-1-yl)pent-1-yl)-5-(2,4,5-trifluorophenyl)-2,3-dihydro-4-methoxylcarboxy-2(1H)-imidazolone]",197
8,"COC(=O)c1[nH]c(=O)n(CCCCCN2CCC(C(=O)OC)(c3ccccc3)CC2)c1Cc1ccc(F)c(F)c1 [Compound 37, 5-(3,4-Difluorobenzyl)-2,3-dihydro-4-methoxycarbonyl-1-(5-(4-methoxycarbonyl-4-phenylpiperidin-1-yl)pent-1-yl)-2(1H) -imidazolone]",513
